Laboratory results reported in US8906939B2, “3-cyano-4-(4-tetrahydropyran-phenyl)-pyridin-2-one derivatives” (Janssen Pharmaceuticals, Inc., priority 2007, dated 2014).

Key:
[1] = biological target: T1, human mGluR2 receptor (Homo sapiens, UniProt Q14416); assay: [35S]GTPγS binding assay, mGluR2 positive allosteric modulation (GTPγS-PAM); type: biochemical; conditions: membranes from CHO cells transfected with human mGluR2; in presence of glutamate at EC25 concentration; averages of duplicate values of 11-concentration response curves; read-out: GTPgS - hR2 PAM pEC50 (converted)
T1 construct: expressed in transfected cells; host or cells: CHO cells (membrane preparation)
Source text: The compounds provided in the present invention are positive allosteric modulators of mGluR2. These compounds appear to potentiate glutamate responses by binding to an allosteric site other than the glutamate binding site. The response of mGluR2 to a concentration of glutamate is increased when compounds of formula (I) are present. Compounds of formula (I) are expected to have their effect substantially at mGluR2 by virtue of their ability to enhance the function of the receptor. The behaviour of positive allosteric modulators tested at mGluR2 using the [^35S]GTPγS binding assay method described below and which is suitable for the identification of such compounds, and more particularly the compounds according to formula (I), are shown in Table 3.
[^35S]GTPγS Binding Assay
The [^35S]GTPγS binding assay is a functional membrane-based assay used to study G-protein coupled receptor (GPCR) function whereby incorporation of a non-hydrolysable form of GTP, [^35S]GTPγS (guanosine 5′-triphosphate, labelled with […] ^35S), is measured. The G-protein […] subunit catalyzes the exchange of guanosine 5′-diphosphate (GDP) by guanosine triphosphate (GTP) and on activation of the GPCR by an agonist, [^35S]GTPγS, becomes incorporated and cannot be cleaved to continue the exchange cycle (Harper (1998) Current Protocols in Pharmacology 2.6.1-10, John Wiley & Sons, Inc.). […] Here we describe the use of the [^35S]GTPγS binding assay using membranes from cells transfected with the human mGluR2 receptor and adapted from Schaffhauser et al ((2003) Molecular Pharmacology 4:798-810) for the detection of the positive allosteric modulation (PAM) properties of the compounds of this invention.
CHO-cells were cultured to pre-confluence and stimulated with 5 mM butyrate for 24 hours, prior to washing in PBS, and then collection by scraping in homogenisation buffer (50 mM Tris-HCl buffer, pH 7.4, 4° C.). Cell lysates were homogenized briefly (15s) using an ultra-turrax homogenizer. The homogenate was centrifuged at 23 500×g for 10 minutes and the supernatant discarded. The pellet was resuspended in 5 mM Tris-HCl, pH 7.4 and centrifuged again (30 000×g, 20 min, 4° C.). The final pellet was resuspended in 50 mM HEPES, pH 7.4 and stored at −80° C. in appropriate aliquots before use. Protein concentration was determined by the Bradford method (Bio-Rad, USA) with bovine serum albumin as standard.
Measurement of mGluR2 positive allosteric modulatory activity of test compounds in membranes containing human mGluR2 was performed using frozen membranes that were thawed and briefly homogenised prior to pre-incubation in 96-well microplates (15 μg/assay well, 30 minutes, 30° C.) in assay buffer (50 mM HEPES pH 7.4, 100 mM NaCl, 3 mM MgCl2, 50 μM GDP, 10 μg/ml saponin,) with increasing concentrations of positive allosteric modulator (from 0.3 nM to 50 μM) and either a minimal pre-determined concentration of glutamate (PAM assay), or no added glutamate. For the PAM assay, membranes were pre-incubated with glutamate at EC25 concentration, i.e. a concentration that gives 25% of the maximal response glutamate, and is in accordance to published data (Pin et al. (1999) Eur. J. Pharmacol. 375:277-294). After addition of [^35S]GTPγS (0.1 nM, f.c.) to achieve a total reaction volume of 200 μl, microplates were shaken briefly and further incubated to allow [^35S]GTPγS incorporation on activation (30 minutes, 30° C.). The reaction was stopped by rapid vacuum filtration over glass-fibre filter plates (Unifilter 96-well GF/B filter plates, Perkin-Elmer, Downers Grove, USA) microplate using a 96-well plate cell harvester (Filtermate, Perkin-Elmer, USA), and then by washing three times with 300 μl of ice-cold wash buffer (Na2PO4.2H2O 10 mM, NaH2PO4.H2O 10 mM, pH=7.4). […]

T1 sequence (Q14416 19-872): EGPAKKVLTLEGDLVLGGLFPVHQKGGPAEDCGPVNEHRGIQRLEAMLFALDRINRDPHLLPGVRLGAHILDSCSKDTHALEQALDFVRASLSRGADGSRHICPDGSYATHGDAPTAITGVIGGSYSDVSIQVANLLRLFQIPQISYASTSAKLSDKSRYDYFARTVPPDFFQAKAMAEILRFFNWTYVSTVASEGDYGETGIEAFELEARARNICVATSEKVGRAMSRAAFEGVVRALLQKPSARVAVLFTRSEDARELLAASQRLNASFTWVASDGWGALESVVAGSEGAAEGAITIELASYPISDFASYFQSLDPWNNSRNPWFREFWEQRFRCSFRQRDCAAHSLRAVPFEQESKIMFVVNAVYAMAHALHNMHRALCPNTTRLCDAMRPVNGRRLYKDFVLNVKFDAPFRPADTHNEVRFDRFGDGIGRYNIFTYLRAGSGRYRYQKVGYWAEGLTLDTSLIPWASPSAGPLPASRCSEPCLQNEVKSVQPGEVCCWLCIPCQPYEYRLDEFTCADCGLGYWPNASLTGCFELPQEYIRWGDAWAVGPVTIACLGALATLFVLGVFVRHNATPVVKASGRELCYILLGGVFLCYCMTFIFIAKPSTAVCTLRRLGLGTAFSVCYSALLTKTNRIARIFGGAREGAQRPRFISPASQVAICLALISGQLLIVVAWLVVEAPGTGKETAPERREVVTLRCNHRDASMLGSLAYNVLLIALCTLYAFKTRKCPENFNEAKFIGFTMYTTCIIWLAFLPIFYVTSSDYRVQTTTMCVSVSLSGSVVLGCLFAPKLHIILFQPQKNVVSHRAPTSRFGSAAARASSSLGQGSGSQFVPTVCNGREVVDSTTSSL

Structure (SMILES)	EC50 [1] [nM]	melting point [°C]
N#Cc1c(-c2ccc(NC3CCOCC3)c(Cl)c2)ccn(CC2CC2)c1=O [Compound 2, 1-Cyclopropylmethyl-4-[3-chloro-4-(tetrahydro-pyran-4-ylamino)-phenyl]-2-oxo-1,2-dihydro-pyridine-3-carbonitrile]	676	–
N#Cc1c(-c2ccc(NC3CCOCC3)c(C(F)(F)F)c2)ccn(CC2CC2)c1=O [Compound 3, 1-Cyclopropylmethyl-2-oxo-4-[4-(tetrahydro-pyran-4-ylamino)-3-trifluoromethyl-phenyl]-1,2-dihydro-pyridine-3-carbonitrile]	1230	–
N#Cc1c(-c2ccc(OC3CCOCC3)c(Cl)c2)ccn(CCC2CC2)c1=O [Compound 4, 4-[3-Chloro-4-(tetrahydro-pyran-4-yloxy)-phenyl]-1-(2-cyclopropyl-ethyl)-2-oxo-1,2-dihydro-pyridine-3-carbonitrile]	282	–
N#Cc1c(-c2ccc(NC3CCOCC3)c(Cl)c2)ccn(CCC2CC2)c1=O [Compound 6]	219	> 300
N#Cc1c(-c2ccc(NC3CCOCC3)c(C(F)(F)F)c2)ccn(CCC2CC2)c1=O [Compound 7]	437	–

Results, then the molecule that gave them:

EC50 [1] [nM]	melting point [°C]	Structure (SMILES)
~1000	249.5	N#Cc1c(-c2ccc(NC3CCOCC3)c(F)c2)ccn(CC2CC2)c1=O [Compound 1, 1-Cyclopropylmethyl-4-[3-fluoro-4-(tetrahydro-pyran-4-ylamino)-phenyl]-2-oxo-1,2-dihydro-pyridine-3-carbonitrile]
162	–	CC(C)CCn1ccc(-c2ccc(OC3CCOCC3)c(Cl)c2)c(C#N)c1=O [Compound 5]
2510	195	CCCCn1ccc(-c2ccc(NC3CCOCC3)cc2)c(C#N)c1=O [Compound 8]
631	136	CCCCn1ccc(-c2ccc(OC3CCOCC3)cc2F)c(C#N)c1=O [Compound 9]
1580	–	CC(C)CCn1ccc(-c2ccc(NC3CCOCC3)cc2F)c(C#N)c1=O [Compound 10]
398	–	CC(C)CCn1ccc(-c2ccc(NC3CCOCC3)c(F)c2)c(C#N)c1=O [Compound 11]
316	–	CC(C)CCn1ccc(-c2ccc(NC3CCOCC3)c(Cl)c2)c(C#N)c1=O [Compound 12]
